Series [1] deals with γ-secretase-mediated cleavage of Notch. In words: γ-secretase-mediated cleavage of Notch (NICD western blot) in transfected N2A-APPswe cells. The format is cell-based. The settings on record: N2A-APPswe cells transfected with Myc-tagged mAE-Notch-1, 24-hour incubation vs vehicle. How it is done: For transfection studies, N2A-APPswe cells were transfected with 1 μg Myc-tagged mAE-Notch-1 complementary DNA overnight (a generous gift from Dr. L. D'Adamio, Albert Einstein Medical College, NY) by using Lipofectamine 2000 (Invitrogen). The media were removed and fresh media containing MK-591, L685, 458 or vehicle was added. After a 24-hour incubation, cell lysates were collected and Notch intracellular domain (NICD) expression levels assayed by western blot analysis.
A general note: A western blot detects proteins with antibodies after separation by electrophoresis.

The next series has as its system 3xTg mice. In words: Electrophysiology of hippocampal slices (fEPSP, PPF, LTP) of 3xTg mice. As to conditions: 3xTg-MK-591 mice, mean +/- SEM. The format is in vivo, mouse. How it is done:
The 3xTg mice harboring a mutant amyloid precursor protein (APP; KM670/671NL), a human mutant PS1 (M146V) knockin, and tau (P301L) transgenes, wild type mice (WT), and mice genetically deficient for FLAPKO (FLAPKO) used in this study were reported previously (Oddo S et al. Neuron 2003, 39:409-421; Byrum R S et al. J Exp Med 1997, 185:1065-1075). All the animals were backcrossed 10 times on the same genetic background C57BL6/SJL. The FLAPKO mice were crossbred several times with 3xTg mice to obtain founder animals (3xTg/FLAPKO), which were then crossed with each other. The animals from these crosses were used for the studies. […]
Six month old mice (n=# slices/# animals): WT (n=23/8); 3xTg (n=21/7); 3xTg-FLAPKO (n=21/6); 3xTg plus MK-591 (n=10/3) were sacrificed by rapid decapitation and brains were put into ice-cold artificial cerebral spinal fluid (CSF) in which sucrose (248 mM) was substituted for NaCl. […] We recorded field excitatory postsynaptic potentials (fEPSPs) from the CAl stratum radiatum by using an extracellular glass pipette ([…]) filled with ACSF. […] Baseline was recorded for 20 mins prior to tetanization with pulses every 30 seconds. […] The fEPSP rise/slope (mV/ms) between 30 and 90% was measured offline using Clampfit 10.3 (Molecular Devices, LLC) and normalized to the mean rise/slope of the baseline. […]

In another series the test system is Tg2576 mice. Description: General health and blood parameters of Tg2576 mice on chronic MK-591 diet. The format is in vivo, mouse. How it is done:
The Tg2576 transgenic mice expressing human APP with the Swedish mutation (K670N/M671L) used in these studies were previously described (Pratico D et al. J Neurosci 2001, 21(12):4183-4187). The mice were genotyped by polymerase chain reaction (PCR) analysis using tail DNA and kept in a pathogen-free environment, one 12-hour light/dark cycle and had access to food and water ad libitum. All the experiments presented herein were performed with female mice. Starting at 7 months of age, mice were randomized to receive MK-591 (40 mg/kg weight) (n=11) or vehicle (n=9) in their chow diet for 8 months until they were 15 months old. Considering that each mouse eats on average 5 g/day of chow diet and the diet is formulated for 320 mg MK-591 pwer kg diet (Harlan Teklad, Wis., USA), the final dose of the active drug was approximately 40 mg/kg weight/day.
Starting at seven months of age Tg2576 mice were randomized to receive MK-591 (320 mg/kg diet) or vehicle in their chow diet for 8 months before being sacrificed. Considering that each mouse eats on average 5 g/day of chow diet, the final dose of the active drug was approximately 40 mg/kg weight/day. By the end of the study, body weight, total plasma cholesterol, triglycerides and blood cell counts were not different between the two groups (not shown).

Where [2] appears, read: MK-591 approximately 40 mg/kg weight/day for 8 months vs vehicle, end of study.
The mark [3] stands for this setting: MK-591 approximately 40 mg/kg weight/day in chow for 8 months.

Entries after “also recorded” stand apart in the source; their conditions may differ.

In the case of `CC(C)C[C@H](NC(=O)[C@H](Cc1ccccc1)C[C@@H](O)[C@H](Cc1ccccc1)NC(=O)OC(C)(C)C)C(=O)N[C@@H](Cc1ccccc1)C(N)=O` [L685,458], the “Notch intracellular domain (NICD) levels” value in series [1] is on record as “significant reduction”.
Consider `CC(C)(C)Sc1c(CC(C)(C)C(=O)O)n(Cc2ccc(Cl)cc2)c2ccc(OCc3ccc4ccccc4n3)cc12` [MK-591, 3-[3-tert-butylsulfanyl-1-[(4-chlorophenyl)methyl]-5-(quinolin-2-ylmethoxy)indol-2-yl]-2,2,-dimethylpropanoic acid], for which the “LTP magnitude as percentage of baseline, 0-10 minutes post-tetanus” value with 3xTg mice (n=10 slices, 3xTg 159.9%, WT 274.6%) worked out at 272.5%+/−13.2%. Also, the “LTP magnitude as percentage of baseline, 170-180 minutes post-tetanus” value in the series with 3xTg mice (3xTg 121.0%, WT 202.6%) came out at 202.5%+/−9.4%. Further, in the series on Tg2576 mice (setting [2]), the blood cell counts result is recorded as “not different”, the total plasma cholesterol result is “not different” and the triglycerides result is reported as “not different”. Further, in the series on Tg2576 mice (setting [3]), the overall general health entry is given as “No macroscopic effect” and the “post-mortem macroscopic pathology of organs (spleen, liver, thymus, ileum)” value is recorded as “no sign of macroscopic pathology”. In the series with Tg2576 mice (MK-591 approximately 40 mg/kg weight/day in chow for 8 months vs vehicle), the body weight entry was “no significant difference; also recorded: not different”.

(Values after patent publication US20130310421A1, “TREATMENT OF AMYLOID BETA AMYLOIDOSIS” (Temple University - Of The Commonwealth System of Higher …, priority 2012, published 2013).)
